From publication PMC5392048 (Journal of Central Nervous System Disease, 2017)

Legend:
[1] = Unbound plasma concentration-time profile of the inhibitors in rats; type: in vivo, rat
OATP1B1 = settings: read-out: Ki for the uptake transporters (OATP1B1); cited from earlier work
P-gp = settings: read-out: inhibitory concentration (Ki) for P-gp; cited from earlier work

Row | Structure (SMILES) | maximum unbound concentration in plasma ([1]; rifampicin 30 mg/kg oral, rat) | Ki (OATP1B1) | time unbound plasma level maintained above Ki (Iu/Ki > 1) ([1]; elacridar 5 mg/kg iv, rat plasma, Ki for P-gp) | unbound peak plasma concentration relative to Ki for P-gp ([1]; elacridar 5 mg/kg iv, rat plasma, peak concentration) | Ki (P-gp)
1 | CO[C@H]1/C=C/O[C@@]2(C)Oc3c(C)c(O)c4c(O)c(c(/C=N/N5CCN(C)CC5)c(O)c4c3C2=O)NC(=O)/C(C)=C\C=C\[C@H](C)[C@H](O)[C@@H](C)[C@@H](O)[C@@H](C)[C@H](OC(C)=O)[C@@H]1C [rifampicin] | 1.8 µM | 1100 nM |  |  | 
2 | COc1cc2c(cc1OC)CN(CCc1ccc(NC(=O)c3cccc4c(=O)c5cccc(OC)c5[nH]c34)cc1)CC2 [elacridar] |  |  | ~ 15 hours | […] | […]
